We go through one molecule from patent US7423020B2, “Treatment of mood disorders by administration of SMR1” (Institut Pasteur, priority 2001, dated 2008).

Where “and” joins values, the source holds several entries; their conditions need not be identical. Identical values can stand only once. Entries after “also recorded” stand apart in the source; their conditions may differ. Where a SMILES comes first, the peptide text is derived from it.

Data set [1] can be described thus: Tissue uptake of SMR1-Pentapeptide in vivo. More on the design: species or system rat.
Data set [2] addresses T1, NEP (Rattus norvegicus, UniProt P07861).
T1 construct: incubations of membrane and fresh tissue slice preparations from nervous tissues; from tissue; host or cells: rat spinal cord (dorsal zone), fresh slices or 100 000 x g membrane fraction
T1 sequence (P07861 1-750): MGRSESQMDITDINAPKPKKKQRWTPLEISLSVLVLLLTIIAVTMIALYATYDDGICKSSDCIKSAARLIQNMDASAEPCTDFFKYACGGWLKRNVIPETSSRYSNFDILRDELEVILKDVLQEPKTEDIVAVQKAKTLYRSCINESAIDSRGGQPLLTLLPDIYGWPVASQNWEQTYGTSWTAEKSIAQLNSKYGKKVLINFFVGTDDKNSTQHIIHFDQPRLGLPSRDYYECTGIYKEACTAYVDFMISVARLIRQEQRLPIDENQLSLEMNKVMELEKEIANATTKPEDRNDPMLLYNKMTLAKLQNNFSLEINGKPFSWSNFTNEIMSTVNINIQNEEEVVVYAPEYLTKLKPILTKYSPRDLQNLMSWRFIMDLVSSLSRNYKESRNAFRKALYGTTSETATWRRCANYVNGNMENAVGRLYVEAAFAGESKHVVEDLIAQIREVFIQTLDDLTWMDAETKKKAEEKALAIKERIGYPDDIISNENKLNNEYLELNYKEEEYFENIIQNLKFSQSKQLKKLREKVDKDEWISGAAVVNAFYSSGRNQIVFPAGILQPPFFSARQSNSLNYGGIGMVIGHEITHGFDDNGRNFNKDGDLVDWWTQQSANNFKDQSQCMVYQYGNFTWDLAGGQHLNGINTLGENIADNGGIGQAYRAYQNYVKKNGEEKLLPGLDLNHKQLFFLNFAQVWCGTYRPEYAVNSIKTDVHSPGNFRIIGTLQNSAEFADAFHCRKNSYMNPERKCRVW
The data set is described as follows: 3H-Substance P hydrolysis by rat spinal cord membrane preparations. The format is biochemical. The procedure:
The organs dissected out and washed in ice-cold KRBG are homogenized at 4° C. in 10 volumes (vol./wt.) of 50 mM Tris/HCl buffered at pH 7.2, using a Teflon-glass homogenizer (3×5 sec.). A first centrifugation of 5 min. at 1000×g and 4° C. makes it possible to remove the tissular debris and the nuclei in the pellet. A second centrifugation of the supernatant at 100 000×g and 5° C. concentrates the membrane fraction into the pellet, which will be superficially washed three times with cold Tris/HCl buffer and resuspended in fresh buffer using a Kontes homogenizer, aliquoted and stored at -80° C. while waiting to be used as enzyme source, at least until three months. For the experiments of analysis of the NEP peptidase activity, an ex vivo model using incubations of membrane and fresh tissue slice preparations from nervous tissues that are known to be appropriate for exploring NEP peptidase activity: i.e. the dorsal zone of rat spinal cord, was first developed. The metabolism rate of the NEP-sensitive peptides was measured using the both NEP substrates involved in the signaling of the nociceptive response: the neuropeptides Met-enkephalin and Substance P. […] (NEN, 12.5-25 nM) were used. The objective was to measure the NEP-specific endoproteolysis of these substrates. […] The radioactivity of eluted and isolated compounds is determined by liquid scintillation spectrometry.

Data set [3] relates to male Wistar/AF EOPS rats. The data set is described as follows: Behavioral despair test (forced swimming). To be noted: for Immobility period, Retest / Immobility period, Test: first 5 minutes, n = 10; for Immobility period, Test: test session before any treatment. The class given is in vivo, rat. More on the design: change of period of immobility, retest compared with test: dose or concentration left out as unconfirmed.

For data set [4], the target named is T2, purified rabbit kidney NEP (Oryctolagus cuniculus, UniProt P08049).
T2 construct: using purified rabbit kidney NEP; from tissue; host or cells: rabbit kidney
T2 sequence (P08049 1-750): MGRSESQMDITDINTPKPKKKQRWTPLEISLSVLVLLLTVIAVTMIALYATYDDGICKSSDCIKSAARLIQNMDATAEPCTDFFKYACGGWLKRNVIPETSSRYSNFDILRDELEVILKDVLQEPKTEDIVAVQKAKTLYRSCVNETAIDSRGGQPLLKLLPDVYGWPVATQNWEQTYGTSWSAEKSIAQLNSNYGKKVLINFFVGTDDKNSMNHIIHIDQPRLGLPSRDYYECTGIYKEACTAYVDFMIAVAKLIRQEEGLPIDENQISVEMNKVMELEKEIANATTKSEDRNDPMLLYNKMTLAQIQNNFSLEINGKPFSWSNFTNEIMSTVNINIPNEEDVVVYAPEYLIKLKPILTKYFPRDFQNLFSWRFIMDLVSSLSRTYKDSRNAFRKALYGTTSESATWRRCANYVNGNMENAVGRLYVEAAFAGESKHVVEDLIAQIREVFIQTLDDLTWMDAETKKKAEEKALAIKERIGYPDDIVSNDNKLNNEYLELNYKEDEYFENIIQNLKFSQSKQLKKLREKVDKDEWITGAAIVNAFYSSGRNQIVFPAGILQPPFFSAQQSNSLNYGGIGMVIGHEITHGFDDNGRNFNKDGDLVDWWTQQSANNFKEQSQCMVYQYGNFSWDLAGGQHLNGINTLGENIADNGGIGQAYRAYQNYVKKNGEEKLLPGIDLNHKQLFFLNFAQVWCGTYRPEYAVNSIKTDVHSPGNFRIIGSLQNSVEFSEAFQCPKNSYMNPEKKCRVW
Put plainly: Direct interaction with purified rabbit kidney NEP in vitro. The format is binding.

Turning to `N=C(N)NCCC[C@H](NC(=O)[C@@H]1CCCN1C(=O)[C@H](CC(N)=O)NC(=O)[C@H](Cc1c[nH]cn1)NC(=O)[C@@H](N)CCC(N)=O)C(=O)O` [SMR1-QHNPR, QHNPR] (H-QHNPR-OH; N-terminus and C-terminus assumed), the “stability of tissue uptake” value in data set [1] was “pharmacokinetically and biochemically stable in vivo”. For the same molecule, in data set [2] (3H-Substance P 12.5 nM, 10 min at 25° C., read-out: IC50 (concentration reducing by half the degradation of 3H-substance P) (converted)), the IC50 was ~100 nM and 100 nM. In addition, in data set [2] (FIG. 3-B), the “protection of Substance P / NEP inhibitory potency compared with reference inhibitors” value is “equivalent to that obtained with Phosphoramidon; also recorded: equivalent to that of two well-known NEP-specific inhibitors, Thiorphan and Phosphoramidon”. The “Immobility period, Retest” value turned out to be 141.20 ± 21.28 in data set [3] (50 μg/kg i.v., 1440, 300, 5 min before the retest) and 121.50 ± 17.47 in data set [3] (100 μg/kg i.v., 1440, 300, 5 min before the retest). The “Immobility period, Test” value is reported as 119.00 ± 13.79 in data set [3] (FG-50 group, 50 μg/kg i.v.) and 138.30 ± 11.03 in data set [3] (FG-100 group, 100 μg/kg i.v.). In addition, in data set [3] (dose of 100), the “change of period of immobility, retest compared with test” value is “reduce it”. Besides, the “direct interaction with NEP” value in data set [4] is “direct interaction of rat kidney NEP and SMR1-Pentapeptide was demonstrated”.
